Data as given in article PMC6001238, “Iterative Chemical Engineering of Vancomycin Leads to Novel Vancomycin Analogs With a High in Vitro Therapeutic Index” (Frontiers in Microbiology, 2018).
≈ marks a conversion by molar mass, not a printed value.

Tests used:
E. faecalis VSE 1 = test: MIC, broth microdilution, vancomycin-sensitive E. faecalis (VSE 1); type: cell-based, Enterococcus faecalis; conditions: for MIC: Enterococcus faecalis VSE 1 (vancomycin-sensitive), read-out: MIC; for MIC-fold improvement vs. vancomycin: VSE 1, ratio of MIC of vancomycin and MIC of analogue
In short: (§1)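 Read-out: lowest concentration inhibiting growth in broth microdilution, CLSI method. Water and broth-only wells acted as controls; in one case 10 μM vancomycin (final) was present with the compound.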

E. faecalis VRE 6 = test: MIC, broth microdilution, vancomycin-resistant E. faecalis VRE 6 (VanA); type: cell-based, Enterococcus faecalis; conditions: for MIC: Enterococcus faecalis VRE 6 (vancomycin-resistant), read-out: MIC; for MIC-fold improvement vs. vancomycin: VRE 6, ratio of MIC of vancomycin and MIC of analogue
In short: as §1

E. faecalis VRE 53 = test: MIC, broth microdilution, vancomycin-resistant E. faecalis VRE 53 (VanA); type: cell-based, Enterococcus faecalis; conditions: for MIC: Enterococcus faecalis VRE 53 (vancomycin-resistant), read-out: MIC; for MIC-fold improvement vs. vancomycin: VRE 53, ratio of MIC of vancomycin and MIC of analogue
In short: as §1

E. faecalis VRE 29 = test: MIC, broth microdilution, vancomycin-resistant E. faecalis VRE 29 (VanA); type: cell-based, Enterococcus faecalis; conditions: for MIC: Enterococcus faecalis VRE 29 (vancomycin-resistant), read-out: MIC; for MIC-fold improvement vs. vancomycin: VRE 29, ratio of MIC of vancomycin and MIC of analogue
In short: as §1

E. faecalis VRE 37 = test: MIC, broth microdilution, vancomycin-resistant E. faecalis VRE 37 (VanA); type: cell-based, Enterococcus faecalis; conditions: for MIC: Enterococcus faecalis VRE 37 (vancomycin-resistant), read-out: MIC; for MIC-fold improvement vs. vancomycin: VRE 37, ratio of MIC of vancomycin and MIC of analogue
In short: as §1

[1] = test system: Murine leukemia (L1210) cells; test: Cytostatic activity, L1210 cell proliferation; type: cell-based; conditions: mean ± SD of three experiments; highest concentration tested 250 µM; 2 days; read-out: Toxicity (IC50) L1210
In short: (§2)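 Test compounds, serially diluted, received an equal volume of cell suspension at 300,000–500,000 cells/mL. After 37°C incubation (2 days for L1210, 3 for CEM, 4 for HeLa), cells were enumerated by Coulter counting and 50%-inhibitory concentrations calculated per cell type.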

[2] = test system: human T-lymphocyte (CEM) cells; test: Cytostatic activity, CEM cell proliferation; type: cell-based; conditions: mean ± SD of three experiments; highest concentration tested 250 µM; 3 days; read-out: Toxicity (IC50) CEM
In short: as §2

[3] = test system: human cervix carcinoma (HeLa) cells; test: Cytostatic activity, HeLa cell proliferation; type: cell-based; conditions: mean ± SD of three experiments; highest concentration tested 250 µM; 4 days; read-out: Toxicity (IC50) HeLa
In short: as §2

[4] = test system: L1210, CEM and HeLa cell lines; test: Cytostatic activity, average or summary over L1210, CEM and HeLa; type: cell-based; conditions: average of L1210, CEM and HeLa; read-out: Toxicity (IC50) Average
In short: as §2

[5] = test system: S. aureus VSSA (ATCC 6538); test: MIC, broth microdilution, vancomycin-sensitive S. aureus (VSSA/MSSA, ATCC 6538); type: cell-based, Staphylococcus aureus; conditions: for MIC: Staphylococcus aureus VSSA, read-out: MIC; for MIC-fold improvement vs. vancomycin: VSSA, ratio of MIC of vancomycin and MIC of analogue
In short: as §1

S. aureus VISA/HIP5827 = test: MIC, broth microdilution, vancomycin-intermediate S. aureus VISA HIP5827; type: cell-based, Staphylococcus aureus; conditions: for MIC: Staphylococcus aureus VISA/HIP5827, read-out: MIC; for MIC-fold improvement vs. vancomycin: VISA/HIP5827, ratio of MIC of vancomycin and MIC of analogue
In short: as §1

S. aureus VRSA = test: MIC, broth microdilution, vancomycin-resistant S. aureus (VRSA); type: cell-based, Staphylococcus aureus; conditions: for MIC: Staphylococcus aureus VRSA, read-out: MIC; for MIC-fold improvement vs. vancomycin: VRSA, ratio of MIC of vancomycin and MIC of analogue
In short: as §1

MRSA KS2 = test: MIC, broth microdilution, MRSA KS2; type: cell-based, Staphylococcus aureus; conditions: for MIC-fold improvement vs. vancomycin: MRSA KS2, ratio of MIC of vancomycin and MIC of analogue; for MIC: Staphylococcus aureus MRSA KS2, read-out: MIC
In short: as §1

MRSA KS6 = test: MIC, broth microdilution, MRSA KS6; type: cell-based, Staphylococcus aureus; conditions: for MIC-fold improvement vs. vancomycin: MRSA KS6, ratio of MIC of vancomycin and MIC of analogue; for MIC: Staphylococcus aureus MRSA KS6, read-out: MIC
In short: as §1

MRSA KS89 = test: MIC, broth microdilution, MRSA KS89; type: cell-based, Staphylococcus aureus; conditions: for MIC-fold improvement vs. vancomycin: MRSA KS8, ratio of MIC of vancomycin and MIC of analogue; for MIC: Staphylococcus aureus MRSA KS8, read-out: MIC
In short: as §1

MRSA KS1 = test: MIC, broth microdilution, MRSA KS1; type: cell-based, Staphylococcus aureus; conditions: for MIC-fold improvement vs. vancomycin: MRSA KS1, ratio of MIC of vancomycin and MIC of analogue; for MIC: Staphylococcus aureus MRSA KS1, read-out: MIC
In short: as §1

Row | Compound | MIC (E. faecalis VSE 1) [µM] | MIC-fold improvement vs. vancomycin (E. faecalis VSE 1) | MIC (E. faecalis VRE 6) [µM] | MIC-fold improvement vs. vancomycin (E. faecalis VRE 6) | MIC (E. faecalis VRE 53) [µM] | MIC-fold improvement vs. vancomycin (E. faecalis VRE 53) | MIC (E. faecalis VRE 29) [µM] | MIC-fold improvement vs. vancomycin (E. faecalis VRE 29) | MIC (E. faecalis VRE 37) [µM] | IC50 [1] [µM] | IC50 [2] [µM] | IC50 [3] [µM] | IC50 [4] [µM] | MIC [5] [µM] | MIC-fold improvement vs. vancomycin [5] | MIC (S. aureus VISA/HIP5827) [µM] | MIC-fold improvement vs. vancomycin (S. aureus VISA/HIP5827) | MIC (S. aureus VRSA) [µM] | MIC-fold improvement vs. vancomycin (S. aureus VRSA) | MIC-fold improvement vs. vancomycin (MRSA KS2) | also measured
1 | CN[C@H](CC(C)C)C(=O)N[C@H]1C(=O)N[C@@H](CC(N)=O)C(=O)N[C@H]2C(=O)N[C@H]3C(=O)N[C@H](C(=O)N[C@H](C(=O)NCC(=O)Nc4ccc(Cl)cn4)c4cc(O)cc(O)c4-c4cc3ccc4O)[C@H](O)c3ccc(c(Cl)c3)Oc3cc2cc(c3O[C@@H]2O[C@H](CO)[C@@H](O)[C@H](O)[C@H]2O[C@H]2C[C@](C)(N)[C@H](O)[C@H](C)O2)Oc2ccc(cc2Cl)[C@H]1O [Vanc-44] | 0.78 (≈ 1.26 µg/mL) | 2 | 12.5 (≈ 20.2 µg/mL) | 16 | 50 (≈ 80.8 µg/mL) | 8 | 25 (≈ 40.4 µg/mL) | 16 | 25 (≈ 40.4 µg/mL) | ≥ 250 | ≥ 250 | 108 ± 38 | 203 | 0.78 (≈ 1.26 µg/mL) | 1 | 1.56 (≈ 2.52 µg/mL) | 4 | 12.5 (≈ 20.2 µg/mL) | 8 | 1 | MIC-fold improvement vs. vancomycin (E. faecalis VRE 37): 16; MIC (MRSA KS2): 0.78 µM (≈ 1.26 µg/mL); MIC-fold improvement vs. vancomycin (MRSA KS6): 0.25; MIC (MRSA KS6): 3.13 µM (≈ 5.06 µg/mL); MIC-fold improvement vs. vancomycin (MRSA KS89): 1; MIC (MRSA KS89): 0.78 µM (≈ 1.26 µg/mL); MIC-fold improvement vs. vancomycin (MRSA KS1): 1; MIC (MRSA KS1): 0.78 µM (≈ 1.26 µg/mL)
2 | CNC(CC(C)C)C(=O)NC1C(=O)NC(CC(N)=O)C(=O)NC2C(=O)NC3C(=O)NC(C(=O)NC(C(=O)NCCCNC(=O)c4cc5cc(F)ccc5[nH]4)c4cc(O)cc(O)c4-c4cc3ccc4O)C(O)c3ccc(c(Cl)c3)Oc3cc2cc(c3OC2OC(CO)C(O)C(O)C2OC2CC(C)(N)C(O)C(C)O2)Oc2ccc(cc2Cl)C1O (stereo not drawn) [Vanc-45] | 0.39 (≈ 0.65 µg/mL) | 4 | 3.13 (≈ 5.22 µg/mL) | 64 | 25 (≈ 41.7 µg/mL) | 16 | 12.5 (≈ 20.8 µg/mL) | 32 | 12.5 (≈ 20.8 µg/mL) | > 250 | > 250 | > 250 | > 250 | 0.39 (≈ 0.65 µg/mL) | 2 | 1.56 (≈ 2.6 µg/mL) | 4 | 1.56 (≈ 2.6 µg/mL) | 64 | 2 | MIC (MRSA KS2): 0.39 µM (≈ 0.65 µg/mL); MIC-fold improvement vs. vancomycin (MRSA KS6): 0.25; MIC (MRSA KS6): 3.13 µM (≈ 5.22 µg/mL); MIC-fold improvement vs. vancomycin (MRSA KS89): 2; MIC (MRSA KS89): 0.39 µM (≈ 0.65 µg/mL); MIC-fold improvement vs. vancomycin (MRSA KS1): 2; MIC (MRSA KS1): 0.39 µM (≈ 0.65 µg/mL)
3 | CNC(CC(C)C)C(=O)NC1C(=O)NC(CC(N)=O)C(=O)NC2C(=O)NC3C(=O)NC(C(=O)NC(C(=O)NCCNC(=O)C4c5ccccc5-c5ccccc54)c4cc(O)cc(O)c4-c4cc3ccc4O)C(O)c3ccc(c(Cl)c3)Oc3cc2cc(c3OC2OC(CO)C(O)C(O)C2OC2CC(C)(N)C(O)C(C)O2)Oc2ccc(cc2Cl)C1O (stereo not drawn) [Vanc-46] | 0.78 (≈ 1.31 µg/mL) | 2 | 6.25 (≈ 10.5 µg/mL) | 32 | 25 (≈ 42.1 µg/mL) | 16 | 25 (≈ 42.1 µg/mL) | 16 | 25 (≈ 42.1 µg/mL) | 197 ± 18 | 235 ± 21 | 108 ± 9 | 180 | 0.78 (≈ 1.31 µg/mL) | 1 | 1.56 (≈ 2.63 µg/mL) | 4 | 6.25 (≈ 10.5 µg/mL) | 16 | 2 | MIC-fold improvement vs. vancomycin (E. faecalis VRE 37): 16; MIC (MRSA KS2): 0.39 µM (≈ 0.657 µg/mL); MIC-fold improvement vs. vancomycin (MRSA KS6): 0.25; MIC (MRSA KS6): 3.13 µM (≈ 5.27 µg/mL); MIC-fold improvement vs. vancomycin (MRSA KS89): 2; MIC (MRSA KS89): 0.39 µM (≈ 0.657 µg/mL); MIC-fold improvement vs. vancomycin (MRSA KS1): 1; MIC (MRSA KS1): 0.78 µM (≈ 1.31 µg/mL)
4 | CN[C@H](CC(C)C)C(=O)N[C@H]1C(=O)N[C@@H](CC(N)=O)C(=O)N[C@H]2C(=O)N[C@H]3C(=O)N[C@H](C(=O)N[C@H](C(=O)NCCNC(=O)CC(c4ccccc4)c4ccccc4)c4cc(O)cc(O)c4-c4cc3ccc4O)[C@H](O)c3ccc(c(Cl)c3)Oc3cc2cc(c3O[C@@H]2O[C@H](CO)[C@@H](O)[C@H](O)[C@H]2O[C@H]2C[C@](C)(N)[C@H](O)[C@H](C)O2)Oc2ccc(cc2Cl)[C@H]1O [Vanc-47] | 0.78 (≈ 1.33 µg/mL) | 2 | 6.25 (≈ 10.6 µg/mL) | 32 | 50 (≈ 85 µg/mL) | 8 | 25 (≈ 42.5 µg/mL) | 16 | 25 (≈ 42.5 µg/mL) | ≥ 250 | 240 ± 4 | 106 ± 14 | 199 | 0.78 (≈ 1.33 µg/mL) | 1 | 1.56 (≈ 2.65 µg/mL) | 4 | 3.13 (≈ 5.32 µg/mL) | 32 | 2 | MIC-fold improvement vs. vancomycin (E. faecalis VRE 37): 16; MIC (MRSA KS2): 0.39 µM (≈ 0.663 µg/mL); MIC-fold improvement vs. vancomycin (MRSA KS6): 0.25; MIC (MRSA KS6): 3.13 µM (≈ 5.32 µg/mL); MIC-fold improvement vs. vancomycin (MRSA KS89): 2; MIC (MRSA KS89): 0.39 µM (≈ 0.663 µg/mL); MIC-fold improvement vs. vancomycin (MRSA KS1): 2; MIC (MRSA KS1): 0.39 µM (≈ 0.663 µg/mL)
